# Results: patent US5474988A, “5-phenylpyrrolo-1,4-benzoxazine and 5-phenylpyrrolo-1,4-benzothiazine compounds, process and intermediates for their production and pharmaceutical compositions containing them” (Kali-Chemie Pharma GmbH, priority 1993, dated 1995)
# Target: T1, 5-lipoxygenase (Homo sapiens, UniProt P09917)
# T1 construct: the 5-LO activity in human whole blood; from tissue; host or cells: heparinized human whole blood
# T1 sequence (P09917 1-674): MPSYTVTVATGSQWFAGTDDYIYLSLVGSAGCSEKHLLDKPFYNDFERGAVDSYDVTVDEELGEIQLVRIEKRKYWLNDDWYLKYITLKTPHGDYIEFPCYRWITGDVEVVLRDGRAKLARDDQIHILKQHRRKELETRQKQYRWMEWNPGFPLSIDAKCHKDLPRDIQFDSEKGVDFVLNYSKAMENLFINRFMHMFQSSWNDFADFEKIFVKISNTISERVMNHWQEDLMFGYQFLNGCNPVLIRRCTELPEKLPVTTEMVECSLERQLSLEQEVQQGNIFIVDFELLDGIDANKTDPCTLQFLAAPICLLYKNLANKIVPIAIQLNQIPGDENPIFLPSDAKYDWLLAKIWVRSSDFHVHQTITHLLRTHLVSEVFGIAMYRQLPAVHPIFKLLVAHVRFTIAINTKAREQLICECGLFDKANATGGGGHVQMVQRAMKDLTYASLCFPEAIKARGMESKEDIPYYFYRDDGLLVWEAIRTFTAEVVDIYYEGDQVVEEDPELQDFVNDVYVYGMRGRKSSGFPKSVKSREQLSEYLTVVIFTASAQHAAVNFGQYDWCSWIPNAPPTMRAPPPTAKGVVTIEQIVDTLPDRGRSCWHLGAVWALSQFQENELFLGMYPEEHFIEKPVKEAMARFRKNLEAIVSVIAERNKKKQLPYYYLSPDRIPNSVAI
# Test: 5-lipoxygenase inhibition in human blood (LTB4 formation)
# Format: cell-based
# Conditions: 0.5 h; 10^-5 mole/liter; human whole blood, 37° C.; read-out: In vitro % inhibitory activity on LTB4 formation in human blood stimulated by calcimycin
# Description: 4c. In vitro determination of 5-lipoxygenase inhibition in human blood.
# The inhibitory activity of the test substances on the 5-LO activity in human whole blood taking place after stimulation by calcimycin is investigated according to the method described by P. Gresele et al. (Biochem. Biophys. Commun. 137 (1986), 334).
# For carrying out the test, human blood is collected in sterile 50 ml test tubes which contain 10 units of heparin/ml of blood and incubated for 5-10 minutes at 37° C. Amounts of test substance, dissolved in 10 μl of dimethylformamide, are added to 2 ml samples of this blood such that a final concentration of test substance of 10 μmol/l is achieved in the samples. Only 10 μl of the solvent were added to control samples. The samples were then incubated for 10 minutes at 37° C. In order to stimulate LTB4 synthesis, an amount of calcimycin, dissolved in 200 μl of plasma, was added to the samples such that a calcimycin concentration of 60 μmol/l was achieved, and the samples were incubated for a further 30 minutes at 37° C. The reaction was then terminated by addition of 200 μl of an ethylene glycol tetraacetate solution (corresponding to an ethylene glycol acetate concentration in the sample of 100 mmol/l). The samples are kept in an ice-bath for 10 minutes and then centrifuged (5 minutes at 1000×g). The supernantant liquids, which contain the LTB4 formed during the reaction time, are each separated and, for precipitation of the proteins contained therein, mixed with 3 ml of acetone and kept for 45 minutes at 4° C. Then the samples are centrifuged again (5 minutes at 1500×g), the supernatant liquids are separated, and the content of LTB4 therein is determined in a known manner by means of an enzyme immunoassay (=EIA). From the measured LTB4 values, the inhibitory activity of the test substances in human whole blood was calculated in % inhibition of LTB4 synthesis in comparison to the control samples containing no test substance.
row,Compound,inhibition at 10 µM
1,Cc1ccnc(N2CCN(C(=O)CCC3Cn4c(-c5ccc(O)cc5)c(C)c5c(O)ccc(c54)O3)CC2)c1 (centres unmarked) [Example 69],95%
2,"Cc1ccnc(N2CCN(CCC3Cn4c(-c5ccc(O)cc5)c(C)c5c(O)ccc(c54)O3)CC2)c1 (centres unmarked) [Example 4, 2,3-Dihydro-7-hydroxy-5-(4-hydroxyphenyl)-6-methyl-2-[2-(4-(4-methylpyridin-2-yl)piperazin-1-yl)ethyl]pyrrolo[1,2,3-de]-1,4-benzoxazine]",86%
3,Cc1ccnc(N2CCN(CCCC3Cn4c(-c5cc(C)c(O)c(C)c5)c(C)c5c(O)ccc(c54)O3)CC2)c1 (centres unmarked) [Example 73],100%
4,Cc1cccnc1N1CCN(CCCC2Cn3c(-c4cc(C)c(O)c(C)c4)c(C)c4c(O)ccc(c43)O2)CC1 (centres unmarked) [Example 74],100%

# Results, then the molecule that gave them:
row,inhibition at 10 µM,Compound
1,96%,Cc1cc(-c2c(C)c3c(OCc4ccccc4)ccc4c3n2CC(CCC(=O)N2CCN(c3ccccn3)CC2)O4)cc(C)c1O (centres unmarked) [Example 75]
2,95%,COc1cc(-c2c(C)c3c(O)ccc4c3n2CC(CCC(=O)N2CCN(c3ccccn3)CC2)O4)cc(C)c1O (centres unmarked) [Example 72]
3,100%,Cc1cc(-c2c(C)c3c(O)ccc4c3n2CC(CCC(=O)N2CCN(c3ccccn3)CC2)O4)cc(C)c1O (centres unmarked) [Example 71]
4,100%,Cc1ccnc(N2CCN(C(=O)CCC3Cn4c(-c5cc(C)c(O)c(C)c5)c(C)c5c(O)ccc(c54)O3)CC2)c1 (centres unmarked) [Example 67]
